Entries after “also recorded” stand apart in the source; their conditions may differ. Where two headings read alike, the source gives them in different places.
Tests used:
[1] = biological target: T1, pyrene-labeled rabbit muscle actin (Oryctolagus cuniculus, UniProt P68135); test: Actin polymerization assay (pyrene actin fluorescence); assay type: biochemical; details: 20 μM derivative, 5 μM pyrene actin, non-polymerizing buffer, followed over 85 min
T1 construct: pyrene-labeled rabbit muscle actin; purchased Cytoskeleton, Inc; host or cells: rabbit muscle (tissue-derived; inferred from the name)
Procedure: A final concentration of 20 μM for each derivative was chosen and polymerization was followed over 85 min.
Fluorescence-based actin polymerization assays were performed using pyrene muscle actin (Cytoskeleton, Inc.) according to the supplier's protocol. Chondramides were dissolved in non-polymerizing buffer (5 mM Tris-HCl pH 8.0, 0.2 mM CaCl2, 0.2 mM ATP, 1 mM DTT) and mixed with pyrene actin diluted in the same buffer to give a final concentration of 20 μM chondramide and 5 μM actin. Samples were prepared in black, low-volume 384-well plates (Corning, NBS™ surface). The fluorescence at 405 nm (excitation at 360 nm) was scanned every 30 s for 85 min at 37° C. on a microplate reader (Spectramax M5^e, Molecular Devices). Experiments were performed in duplicates and the average relative fluorescence of polymerizing pyrene actin is given. Slopes were calculated in the linear range of kinetic measurements.

[2] = test system: panel of cell lines derived from various origins and tissues (cancer cell lines, non-cancerous cell lines, primary cells); test: Growth inhibition experiments (MTT, 5 d), panel of cell lines; assay type: cell-based; details: for growth inhibitory activity in cell lines (in words, compared to chondramides A~C / other derivatives): GI50-based comparison, panel of cell lines; for GI50 values on human cancer cell lines: cell-based studies
Procedure: First, the compounds were tested on a small panel of cell lines derived from various origins and tissues. GI50 values were compared to those determined using chondramides A˜C (see Table 1).
(§1) Cell lines were obtained from the American Type Culture Collection (ATCC) and the German Collection of Microorganisms and Cell Cultures (Deutsche Sammlung für Mikroorganismen and Zellkulturen, DSMZ), and HUVEC (single donor) were purchased from PromoCell. Cells were cultured under the conditions recommended by the respective depositor in a standard humidified incubator at 37° C. with 5% CO2.
(§2) Cells were seeded at 6×10^3 cells per well of 96-well plates (Corning CellBind®) in 180 μl complete medium and directly treated with chondramides dissolved in methanol in a serial dilution. Each compound was tested in duplicate for 5 d, as well as the internal methanol control. After 5 d incubation, 20 μl of 5 mg/ml MTT (Mosmann, T. (1983). Rapid Colorimetric Assay for Cellular Growth and Survival: Application to Proliferation and Cytotoxicity Assays. J. Immunol. Meth. 65, 55-63) in PBS was added per well and it was further incubated for 2 h at 37° C. The medium was then discarded and cells were washed with 100 μl PBS before adding 100 μl 2-propanol/10 N HCl (250:1) in order to dissolve formazan granules. The absorbance at 570 nm was measured using a microplate reader (EL808, Bio-Tek Instruments Inc.), and cell viability was expressed as percentage relative to the respective methanol control. GI50 values were obtained by sigmoidal curve fitting. Testing of fractions was performed likewise using 1.2×10^4 cells per well. Samples were dissolved in cell culture medium and cells were treated for 2 d before adding MTT. Viability was expressed relative to the untreated control.
These compounds were profiled regarding their growth inhibitory potential in a panel of cancer cell lines. Natural chondramide A was used as reference:
Biological evaluation of group A derivatives. GI50 values [nM] were determined in a small panel of cancer cell lines.

[3] = test system: multidrug resistant (MDR) KB-V.1 cell line; test: Growth inhibition experiments (MTT, 5 d), KB-V.1; assay type: cell-based; details: Table 1
Procedure: Cancer Inst. 90, 1559-1563). […] The same applies for most novel derivatives, solely a hydroxyl group at C2′ of the polyketide segment instead of methoxy or simply hydrogen leads to an approximately 10-fold reduced potency. GI50 values of glycosylated derivatives were not determinable precisely in the assay's concentration range.
as §2

[4] = test system: KB-3.1: human cervical carcinoma; test: Growth inhibition experiments (GI50), KB-3.1; assay type: cell-based; details: for GI50 values KB-3.1: Table 1
[5] = test system: HUVEC, human umbilical vein endothelial cells (primary cells); test: Growth inhibition experiments (MTT, 5 d), HUVEC; assay type: cell-based; details: Table 1
Text: (§3) With primary cells (HUVEC, human umbilical vein endothelial cells) and the fibroblast cell line MRC5 this is not the case. Whereas chondramides A˜C are comparably active on both, cancer and non-cancerous cells, brominated chondramide C3 analogs are on average by factor 2-4 less toxic for non-cancerous cells. Accordingly they show a higher selectivity.
as §1, §2

[6] = test system: HCT-116 colon carcinoma cell line; test: Growth inhibition experiments (MTT, 5 d), HCT-116; assay type: cell-based, human
Procedure: as §2

[7] = test system: human U-2 OS osteosarcoma cell line; test: Growth inhibition experiments (MTT, 5 d), U-2 OS; assay type: cell-based
Procedure: as §2

[8] = test system: fibroblast cell line MRC5; test: Growth inhibition experiments (MTT, 5 d), MRC5; assay type: cell-based, human; details: Table 1
Procedure: as §3, §2

L-929 = test: Growth inhibition experiments (GI50), L-929; assay type: cell-based; details: Table 1
[9] = test system: RAW246.7: murine leukemic monocyte macrophages; test: Growth inhibition experiments (GI50), RAW246.7; assay type: cell-based; details: group A derivatives, small panel of cancer cell lines
[10] = Table 1, HCT-116, read-out: GI50 values HCT-116
[11] = Table 1, U-2 OS, read-out: GI50 values U-2 OS

SMILES | melting point [°C] | actin-polymerizing effect (G-actin polymerization in vitro) [1] | growth inhibitory activity in cell lines (in words, compared to chondramides A~C / other derivatives) [2] | GI50 values KB-V.1 [3] | GI50 values KB-3.1 [4] | GI50 values HUVEC [5] | GI50 [6, 10] [µM] | GI50 [7, 11] [µM] | GI50 [8] [µM] | GI50 [5] [µM] | GI50 (L-929) [µM] | GI50 ([6]; group A derivatives, small panel of cancer cell lines, HCT-116 human colon carcinoma, read-out: GI50 HCT-116) [µM] | GI50 KB-3.1 ([4]; group A derivatives, small panel of cancer cell lines, KB-3.1 human cervical carcinoma) [µM] | GI50 ([7]; group A derivatives, small panel of cancer cell lines, U-2 OS human osteosarcoma, read-out: GI50 U-2 OS) [µM] | GI50 [9] [µM] | GI50 values on human cancer cell lines [2] | GI50 values L-929 (L-929)
C/C1=C\CCOC(=O)C[C@H](c2ccc(O)c(Cl)c2)NC(=O)[C@@H](Cc2c(Cl)[nH]c3ccccc23)N(C)C(=O)[C@H](C)NC(=O)CC1 | 135 to 139 |  |  |  |  |  |  |  |  |  |  |  |  |  |  |  | 
COC1C(=O)OC(C)C(C)C=C(C)CC(C)C(=O)NC(C)C(=O)N(C)C(Cc2c(Cl)[nH]c3ccccc23)C(=O)NC1c1ccc(OC2OC(C(=O)O)C(O)C(O)C2O)c(Cl)c1 (stereo not drawn) [Chondramide A10] |  | slow increase in G-actin polymerization; also recorded: partly restore the ability to polymerize actin | significantly reduced | w.a. | w.a. | w.a. |  |  |  |  |  |  |  |  |  |  | 
CCC1OC(=O)CC(c2ccc(O)cc2)NC(=O)C(Cc2c[nH]c3ccccc23)N(C)C(=O)C(C)NC(=O)C(C)CC(C)=CC1C (stereo not drawn) [Propionyl-Chondramide C1] |  | significantly reduced actin-polymerizing effect | comparable to chondramides A˜C | 0.0227 ± 0.0083 µM | 0.0563 ± 0.0096 µM |  | 0.0421 ± 0.0032 | 0.0151 ± 0.0011 | 0.0719 ± 0.0041 | 0.0546 ± 0.0055 | 0.03 ± 0.0077 |  |  |  |  |  | 
CO[C@@H]1C(=O)O[C@H](C)[C@H](C)/C=C(\C)C[C@H](C)C(=O)N[C@@H](C)C(=O)N(C)[C@H](Cc2c[nH]c3ccccc23)C(=O)N[C@H]1c1ccc(O)cc1 [Chondramide A, reference compound] |  |  |  | 0.038 ± 0.0105 µM | 0.0505 ± 0.0154 µM |  | 0.0489 ± 0.0146 | 0.0271 ± 0.0041 | 0.0638 ± 0.013 | 0.0437 ± 0.007 | 0.0909 ± 0.0118 | 0.0917 | 0.0716 | 0.0685 | 0.0473 |  | 
COC1C(=O)OC(C)C(C)C=C(C)CC(C)C(=O)NC(C)C(=O)N(C)C(Cc2c(Cl)[nH]c3ccccc23)C(=O)NC1c1ccc(OP(=O)(O)O)cc1 (stereo not drawn) [Chondramide A6] |  | significantly reduced actin-polymerizing effect | comparable to chondramides A˜C | 0.0231 ± 0.0015 µM | 0.0493 ± 0.0076 µM |  | 0.0609 ± 0.0035 | 0.0516 ± 0.0046 | 0.0259 ± 0.0015 | 0.0677 ± 0.0104 | 0.0446 ± 0.0055 |  |  |  |  |  | 
COC1C(=O)OC(C)C(C)C=C(C)CC(C)C(=O)NC(C)C(=O)N(C)C(Cc2c(Cl)[nH]c3ccccc23)C(=O)NC1c1ccc(O)c(Cl)c1 (stereo not drawn) [Chondramide A4] |  | similarly potent; also recorded: increases the polymerization rate even more drastically |  | 0.0831 ± 0.0016 µM | 0.0568 ± 0.007 µM |  | 0.0444 ± 0.0016 | 0.0264 ± 0.0022 | 0.0127 ± 0.0014 | 0.0525 ± 0.0074 | 0.0676 ± 0.0098 |  |  |  |  |  | 
CC1=CC(C)C(C)OC(=O)C(O)C(c2ccc(O)c(Cl)c2)NC(=O)C(Cc2c(Cl)[nH]c3ccccc23)N(C)C(=O)C(C)NC(=O)C(C)C1 (stereo not drawn) [Chondramide E4] |  | decreased ability to polymerize actin |  | 0.2515 ± 0.0791 µM | 0.6272 ± 0.1225 µM |  | 0.379 ± 0.0302 | 0.352 ± 0.0306 | 0.48 ± 0.0636 | 0.207 ± 0.0264 | 0.555 ± 0.0816 |  |  |  |  |  | 
COC1C(=O)OC(C)C(C)C=C(C)CC(C)C(=O)NC(C)C(=O)N(C)C(Cc2c[nH]c3ccccc23)C(=O)NC1c1ccc(O)c(Br)c1 (stereo not drawn) [Bromo-Chondramide A3] |  | quickly polymerizes G-actin |  | 0.0112 ± 0.0004 µM | 0.0745 ± 0.0142 µM |  | 0.0429 ± 0.0032 | 0.0377 ± 0.0028 | 0.0445 ± 0.0049 | 0.0327 ± 0.0029 | 0.0694 ± 0.0015 |  |  |  |  | low nanomolar range | 
C/C1=C\CCOC(=O)C[C@H](c2ccc(O)c(Br)c2)NC(=O)[C@@H](Cc2c[nH]c3ccccc23)N(C)C(=O)[C@H](C)NC(=O)CC1 | 129 to 132 |  |  |  |  |  |  |  |  |  |  |  |  |  |  |  | 
CCC1OC(=O)CC(c2ccc(O)c(Br)c2)NC(=O)C(Cc2c[nH]c3ccccc23)N(C)C(=O)C(C)NC(=O)C(C)CC(C)=CC1C (stereo not drawn) [Propionyl-Bromo-Chondramide C3] |  |  | the most active in cell-based studies | 0.0319 ± 0.002 µM | 0.038 ± 0.0065 µM |  | 0.0172 ± 0.0016 | 0.009 ± 0.0006 | 0.13 ± 0.0037 | 0.0502 ± 0.0056 | 0.023 ± 0.0021 |  |  |  |  | low nanomolar range | 
COC1C(=O)OC(C)C(C)C=C(C)CC(C)C(=O)NC(C)C(=O)N(C)C(Cc2c(Cl)[nH]c3ccccc23)C(=O)NC1c1ccc(OP(=O)(O)O)c(Cl)c1 (stereo not drawn) [Chondramide A8] |  | significantly reduced actin-polymerizing effect | comparable to chondramides A˜C | 0.0581 ± 0.004 µM | 0.0134 ± 0.003 µM |  | 0.0493 ± 0.0076 | 0.0332 ± 0.0034 | 0.0076 ± 0.0047 | 0.0241 ± 0.0079 | 0.0562 ± 0.0125 |  |  |  |  |  | 
COC1C(=O)OC(C)C(C)C=C(C)CC(C)C(=O)NC(C)C(=O)N(C)C(Cc2c[nH]c3ccccc23)C(=O)NC1c1ccc(O)c(Cl)c1 (stereo not drawn) [Chondramide A3] |  | significantly reduced actin-polymerizing effect | comparable to chondramides A˜C | 0.0857 ± 0.0014 µM | 0.0635 ± 0.0126 µM |  | 0.0286 ± 0.0039 | 0.0467 ± 0.0065 | 0.038 ± 0.0028 | 0.0505 ± 0.0056 | 0.0728 ± 0.0036 |  |  |  |  |  | 
C/C1=C\CCOC(=O)C[C@H](c2ccc(O)c(Cl)c2)NC(=O)[C@@H](Cc2c[nH]c3ccccc23)N(C)C(=O)[C@H](C)NC(=O)CC1 | 122 to 126 |  |  |  |  |  |  |  |  |  |  |  |  |  |  |  | 
COC1C(=O)OC(C)C(C)C=C(C)CC(C)C(=O)NC(C)C(=O)N(C)C(Cc2c[nH]c3ccccc23)C(=O)NC1c1ccc(OC2OC(C(=O)O)C(O)C(O)C2O)c(Cl)c1 (stereo not drawn) [Chondramide A9] |  | does not show any actin-polymerizing effect | significantly reduced | w.a. |  |  |  |  |  |  |  |  |  |  |  |  | w.a.

From US20150291658A1, “NOVEL CHONDRAMIDE DERIVATIVES” (HELMOLTZ-ZENTRUM FÜR INFEKTIONSFORSCHUNG, priority 2012, published 2015)
